The values that follow come from patent publication US20210047291A1, “PESTICIDALLY ACTIVE HETEROCYCLIC DERIVATIVES WITH SULFUR CONTAINING SUBSTITUENTS” (SYNGENTA PARTICIPATIONS AG, priority 2018, published 2021).

Common to all, as to format: in vivo
For assay [1], the system named is Nilaparvata lugens (Brown Plant Hopper). The assay is described as follows: Example B21: Nilaparvata lugens, larvicide, feeding/contact, rice plants. The settings on record: Concentration 3 ppm, NILALU (contact). As to the method:
Rice plants were treated with the diluted test solutions in a spray chamber. After drying plants were infested with ˜20 N3 nymphs. 7 days after the treatment samples were assessed for mortality and growth regulation.

Assay [2] concerns Frankliniella occidentalis (Western Flower Thrips). The assay is described as follows: Example B22: Frankliniella occidentalis, mixed population, contact/feeding, French bean plants. The conditions noted are these: Concentration 50 ppm, FRANOC (contact). As to the method:
French bean plants were treated with diluted test solutions in a spray chamber. After drying plants were infested with a mixed aged thrips population. 7 days after infestation, samples were assessed for mortality.

For assay [3], the system named is Euschistus heros (Neotropical Brown Stink Bug). The assay is described as follows: Example B3: Euschistus heros, soybean leaves, N2 nymphs. The settings on record: Euschistus heros, 120 h; application rate of 200 ppm; N2 nymphs; 5 days after infestation; read-out: effect in at least one of the two categories (mortality or growth inhibition). As to the method:
Soybean leaves on agar in 24-well microtiter plates were sprayed with aqueous test solutions prepared from 10,000 ppm DMSO stock solutions. After drying the leaves were infested with N2 nymphs. The samples were assessed for mortality and growth inhibition in comparison to untreated samples 5 days after infestation.

Assay [4] concerns Bemisia tabaci (Cotton White Fly). The assay is described as follows: Example B1: Bemisia tabaci feeding/contact activity, cotton leaf discs. The conditions noted are these: foliar, 144 h, application rate of 200 ppm, adult white flies, 6 days after incubation. How it is done:
Cotton leaf discs were placed on agar in 24-well microtiter plates and sprayed with aqueous test solutions prepared from 10,000 ppm DMSO stock solutions. After drying the leaf discs were infested with adult white flies. The samples were checked for mortality 6 days after incubation.

The subject of assay [5] is Plutella xylostella (Diamond Back Moth). The assay is described as follows: Example B7: Plutella xylostella, artificial diet, L2 larvae. The conditions noted are these: 120 h, application rate of 200 ppm, L2 larvae, 5 days after infestation, read-out: effect in at least one of the two categories (mortality or growth inhibition). As to the method:
24-well microtiter plates with artificial diet were treated with aqueous test solutions prepared from 10,000 ppm DMSO stock solutions by pipetting. After drying, the plates were infested with L2 larvae (10 to 15 per well). The samples were assessed for mortality and growth inhibition in comparison to untreated samples 5 days after infestation.

A further assay concerns Melodoigyne incognita. The assay is described as follows: Example B14: Melodoigyne incognita juvenile mobility, in vitro profiling in 96 well plate. The settings on record: 200 ppm; after 24 h; second stage juveniles; read-out: control (juvenile mobility). The method, boiled down:
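Second-stage juveniles (100–150 per well, freshly harvested) were exposed in triplicate to test solutions prepared at 1000, 200, 100, 50, 25 and 12.5 ppm before nematode suspension was added. Plates were kept 24 h at room temperature in the dark. Juvenile mobility was measured by imaging and compared with 12 untreated replicates.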

For assay [6], the system named is Myzus persicae (Green peach aphid). The assay is described as follows: Example B6: Myzus persicae systemic activity, pea seedlings. The conditions noted are these: Myzus persicae, 144 h; test rate of 24 ppm; mixed ages; 6 days after placing seedlings into test solutions; read-out: mortality. How it is done: Roots of pea seedlings infested with an aphid population of mixed ages were placed directly into aqueous test solutions prepared from 10,000 DMSO stock solutions. The samples were assessed for mortality 6 days after placing seedlings into test solutions.

The subject of assay [7] is Tetranychus urticae (Two-Spotted Spider Mite). The assay is described as follows: Example B10: Tetranychus urticae feeding/contact activity, bean leaf discs. The settings on record: foliar, 192 h, application rate of 200 ppm, mixed population (mobile stages), 8 days after infestation. As to the method:
Bean leaf discs on agar in 24-well microtiter plates were sprayed with aqueous test solutions prepared from 10,000 ppm DMSO stock solutions. After drying the leaf discs were infested with a mite population of mixed ages. The samples were assessed for mortality on mixed population (mobile stages) 8 days after infestation.

The subject of assay [8] is Myzus persicae (Green peach aphid). The assay is described as follows: Example B20: Myzus persicae, mixed population, systemic into soil (drench), pea seedlings. The conditions noted are these: Concentration 0.2 ppm, MYZUPE (drench). As to the method:
Pea seedlings cultivated in field soil and infested 1 day before treatment with mixed aged aphid population were treated as drench application and checked for mortality 7 days after treatment.

The subject of assay [9] is Spodoptera littoralis (Egyptian Cotton Leaf Worm). The assay is described as follows: Example B9: Spodoptera littoralis, cotton leaf discs (mortality, anti-feeding, growth inhibition). The settings on record: foliar, 72 h, application rate of 200 ppm, L1 larvae, 3 days after infestation, read-out: control (mortality, anti-feeding effect or growth inhibition). In a few lines:
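Cotton leaf discs on agar sprayed with aqueous dilutions of 10,000 ppm DMSO stocks, dried, then infested with five L1 larvae. Mortality, anti-feeding and growth inhibition scored against untreated discs 3 days after infestation. Control recorded when any one category exceeds the untreated sample.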

Assay [10] concerns Myzus persicae (Green peach aphid). The assay is described as follows: Example B5: Myzus persicae feeding/contact activity, sunflower leaf discs. The conditions noted are these: Myzus persicae, foliar, 144 h; application rate of 200 ppm; mixed ages; 6 days after infestation; read-out: mortality. How it is done:
Sunflower leaf discs were placed onto agar in a 24-well microtiter plate and sprayed with aqueous test solutions prepared from 10,000 ppm DMSO stock solutions. After drying, the leaf discs were infested with an aphid population of mixed ages. The samples were assessed for mortality 6 days after infestation.

Assay [11] has as its system Diabrotica Balteata (Corn Root Worm). The assay is described as follows: Example B2: Diabrotica balteata, maize sprouts, L2 larvae. The settings on record: Diabrotica balteata, 96 h, application rate of 200 ppm; L2 larvae; 4 days after infestation; read-out: effect in at least one of the two categories (mortality or growth inhibition). As to the method:
Maize sprouts placed onto an agar layer in 24-well microtiter plates were treated with aqueous test solutions prepared from 10,000 ppm DMSO stock solutions by spraying. After drying, the plates were infested with L2 larvae (6 to 10 per well). The samples were assessed for mortality and growth inhibition in comparison to untreated samples 4 days after infestation.

Assay [12] has as its system Frankliniella occidentalis (Western Flower Thrips). The assay is described as follows: Example B4: Frankliniella occidentalis feeding/contact activity, sunflower leaf discs. The settings on record: foliar, 168 h, application rate of 200 ppm, mixed ages, 7 days after infestation. As to the method: Sunflower leaf discs were placed on agar in 24-well microtiter plates and sprayed with aqueous test solutions prepared from 10,000 DMSO stock solutions. After drying the leaf discs were infested with a Frankliniella population of mixed ages. The samples were assessed for mortality 7 days after infestation.

Assay [13] has as its system Myzus persicae (Green peach aphid). The assay is described as follows: Example B19: Myzus persicae, mixed population, contact/feeding, pepper plants. The settings on record: Concentration 3 ppm, MYZUPE (contact). As to the method:
Pepper plants were infested with mixed aged aphid population and were treated 1 day after infestation with diluted test solutions in a spray chamber. 5 days after treatment samples were assessed for mortality.

For assay [14], the system named is Frankliniella occidentalis (Western Flower Thrips). The assay is described as follows: Example B23: Frankliniella occidentalis, mixed population, systemic into soil (drench), French bean plants. The conditions noted are these: Concentration 3 ppm, FRANOC (drench). As to the method:
French bean plants cultivated in field soil, were treated via drench application and 1 day after treatment they were infested with mixed aged thrips population. 8 days after infestation samples were assessed for mortality and phytotoxicity symptoms.

For assay [15], the system named is Plutella xylostella (Diamond Back Moth). The assay is described as follows: Example B12: Plutella xylostella, artificial diet, eggs. The conditions noted are these: 192 h, application rate of 200 ppm, 8 days after infestation, read-out: effect in at least one of the two categories (mortality or growth inhibition). As to the method:
24-well microtiter plates with artificial diet were treated with aqueous test solutions prepared from 10,000 ppm DMSO stock solutions by pipetting. After drying, Plutella eggs were pipetted through a plastic stencil onto a gel blotting paper and the plate was closed with it. The samples were assessed for mortality and growth inhibition in comparison to untreated samples 8 days after infestation. The following compounds gave an effect of at least 80% in at least one of the two categories (mortality or growth inhibition) at an application rate of 200 ppm: P46.

For the compound `CCS(=O)(=O)c1cc(N(C)C(C)=O)cnc1-c1nc2cc(C(F)(F)F)ncc2n1C` [P6, N-[5-ethylsulfonyl-6-[3-methyl-6-(trifluoromethyl)imidazo[4,5-c]pyridin-2-yl]-3-pyridyl]-N-methyl-acetamide], the mortality at 3 ppm in assay [1] turned out to be 80%; in assay [13], 70%; in [14] it was 92.5%. This compound displayed a mortality at 50 ppm in assay [2] of 98%. Also, the percent effect (mortality or growth inhibition) at 200 ppm in [3], in [5] and in [11] was not below 80% throughout. Also, the mortality at 200 ppm in [4], in assay [7], in assay [10] and in assay [12] was not below 80% throughout. Besides, the pest or weed control at 200 ppm in the assay with Melodoigyne incognita was not below 80%. Also, in assay [6], the mortality at 24 ppm was not below 80%. In assay [8], this compound returned a mortality at 0.2 ppm of 92.5%. The percent control (mortality, anti-feedant effect or growth inhibition) at 200 ppm in [9] is not below 80%.

For the compound `CCS(=O)(=O)c1cc(N(C(C)=O)C(C)C)cnc1-c1nc2cc(C(F)(F)F)ncc2n1C` [P46, N-[5-ethylsulfonyl-6-[3-methyl-6-(trifluoromethyl)imidazo[4,5-c]pyridin-2-yl]-3-pyridyl]-N-isopropyl-acetamide], the percent effect (mortality or growth inhibition) at 200 ppm in assay [3], in [15] and in [11] was not below 80% in each case. Also, the mortality at 200 ppm in assay [4], in assay [7], in assay [10] and in [12] was not below 80% throughout. Moreover, the mortality at 24 ppm in [6] is not below 80%.

What is called mortality is the percentage killed.
